Each structure is given as a SMILES string. Values joined by “and” are separate entries in the source; they are usually repeats but may differ in a detail not shown here. Equal values may be shown once.

Here are results for 15 molecules from patent publication US9023398B2, “Method for improving the aqueous solubility of poorly-soluble substances” (Kabushiki Kaisha Sangi, priority 2009, dated 2015).

Series [1] is described as follows: Dissolution test of poorly-soluble substances using distilled water. Format: physicochemical.
The nature of series [2]: Dissolution test of poorly-soluble substances using 2nd fluid for disintegration test (pH 6.8) of the Japanese Pharmacopoeia. The class given is physicochemical.
Procedure: From initiation of the test, the mixed solution was stirred with a stirrer having a length of 15 mm. The rotation number of the stirrer was 120 rpm, and all of the tests were conducted in a thermostat at 37±0.5° C. Two types of test solutions, namely, distilled water and 2nd fluid for disintegration test (pH 6.8) of the Japanese Pharmacopoeia were used. As such 2nd fluid for disintegration test of the Japanese Pharmacopoeia, a solution prepared by diluting the 10-fold concentration solution of Kanto Kagaku Co., Ltd. with distilled water was used.
A comparative test was carried out in the same manner as that described above with the exception that a poorly-soluble substance or the like was used in an amount equal to that of a substance with improved aqueous solubility, instead of the substance with improved aqueous solubility.
1 mL of the solution was sampled in an Eppendorf centrifuge tube, 1, 3, 10, 30, 60, 180 and 360 minutes after initiation of the test. The thus sampled solution was centrifuged at 12,000 rpm for 5 minutes. […] In the case of the comparative test, the poorly-soluble substance or the like, which had not been dissolved in the solution, was removed. An aliquot of this supernatant was immediately frozen. The frozen sample was freeze-dried, and it was then used as a sample in the measurement of the amount of the substance with improved aqueous solubility, which had been dissolved in the test solution. The dissolved poorly-soluble substance was measured mainly using a dual wavelength absorption photometer.
Where [3] appears, read: after dissolution test for 360 minutes, distilled water, 37±0.5° C.
Setting [4] is: after dissolution test for 360 minutes, Second disintegration test medium (pH 6.8), 37±0.5° C.
Setting [5] is: 2nd fluid for disintegration test, elution time 3 min.
[6] abbreviates: 2nd fluid for disintegration test, elution time 120 min.
The mark [7] stands for this setting: 2nd fluid for disintegration test, elution time 360 min.
Where [8] appears, read: 2nd fluid for disintegration test, elution time 1 min.
Setting [9] is: 2nd fluid for disintegration test, elution time 10 min.
Where [10] appears, read: 2nd fluid for disintegration test, elution time 30 min.

Turning to `CCCN(CCC)S(=O)(=O)c1ccc(C(=O)O)cc1` [compound 38, Probenecid], the Dissolved amount in series [1] (Probenecid, water, elution time 3 min) came to 10.7 µg/mL; in series [1] (Probenecid, water, elution time 10 min), 22.7 µg/mL; in series [1] (Probenecid, water, elution time 30 min), 33.4 µg/mL; in series [1] (Probenecid, water, elution time 120 min), 39.8 µg/mL; in series [1] (Probenecid, water, elution time 360 min) it was 37.5 µg/mL; in series [2] (Probenecid, 2nd fluid for disintegration test, elution time 3 min) it was 386.2 µg/mL. Also, the Dissolved amount is 1107.2 µg/mL in series [2] (Probenecid, 2nd fluid for disintegration test, elution time 10 min); 1315.0 µg/mL in series [2] (Probenecid, 2nd fluid for disintegration test, elution time 30 min); 2619.5 µg/mL in series [2] (Probenecid, 2nd fluid for disintegration test, elution time 120 min); 3715.9 µg/mL in series [2] (Probenecid, 2nd fluid for disintegration test, elution time 360 min).
For `CC(C)NCC(O)COc1cccc2[nH]ccc12` (stereo not shown) [compound 42, Pindolol], the Dissolved amount in series [1] (Pindolol, water, elution time 3 min) amounted to 53.1 µg/mL; in series [1] (Pindolol, water, elution time 10 min), 71.1 µg/mL; in series [1] (Pindolol, water, elution time 30 min), 77.8 µg/mL; in series [1] (Pindolol, water, elution time 120 min), 93.5 µg/mL; in series [1] (Pindolol, water, elution time 360 min), 93.6 µg/mL; in series [2] (Pindolol, 2nd fluid for disintegration test, elution time 3 min), 1394.9 µg/mL. The Dissolved amount turned out to be 2837.9 µg/mL in series [2] (Pindolol, 2nd fluid for disintegration test, elution time 10 min); 3212.1 µg/mL in series [2] (Pindolol, 2nd fluid for disintegration test, elution time 30 min); 3624.7 µg/mL in series [2] (Pindolol, 2nd fluid for disintegration test, elution time 120 min).
For `OCCN(CCO)c1nc(N2CCCCC2)c2nc(N(CCO)CCO)nc(N3CCCCC3)c2n1` [compound 31, Dipyridamole], the Dissolved amount in series [1] (water, elution time 3 min) is 7.8 µg/mL; in series [1] (water, elution time 10 min), 7.9 µg/mL; in series [1] (water, elution time 30 min), 8.0 µg/mL; in series [1] (water, elution time 120 min) it was 8.5 µg/mL; in series [1] (water, elution time 360 min) it was 8.2 µg/mL; in series [2] (Dipyridamole, 2nd fluid for disintegration test, elution time 3 min), 6.5 µg/mL. Moreover, the Dissolved amount stood at 6.5 µg/mL in series [2] (Dipyridamole, 2nd fluid for disintegration test, elution time 10 min); 8.3 µg/mL in series [2] (Dipyridamole, 2nd fluid for disintegration test, elution time 30 min); 8.5 µg/mL in series [2] (Dipyridamole, 2nd fluid for disintegration test, elution time 120 min); 9.2 µg/mL in series [2] (Dipyridamole, 2nd fluid for disintegration test, elution time 360 min).
Consider `O=C(CCCN1CCC(O)(c2ccc(Cl)cc2)CC1)c1ccc(F)cc1` [compound 46, Haloperidol], for which the Dissolved amount in series [1] (Haloperidol, water, elution time 3 min) worked out at 8.2 µg/mL; in series [1] (Haloperidol, water, elution time 10 min), 10.0 µg/mL; in series [1] (Haloperidol, water, elution time 30 min), 11.3 µg/mL; in series [1] (Haloperidol, water, elution time 360 min), 13.1 µg/mL; in series [2] (Haloperidol, 2nd fluid for disintegration test, elution time 3 min) it was 23.9 µg/mL; in series [2] (Haloperidol, 2nd fluid for disintegration test, elution time 10 min) it was 35.6 µg/mL. Moreover, the Dissolved amount in series [2] (Haloperidol, 2nd fluid for disintegration test, elution time 120 min) was 50.1 µg/mL; in series [2] (Haloperidol, 2nd fluid for disintegration test, elution time 360 min), 48.9 µg/mL.
For `C[C@]12C=CC(=O)C=C1CC[C@@H]1[C@@H]2[C@@H](O)C[C@@]2(C)[C@H]1CC[C@]2(O)C(=O)CO` [compound 41, Prednisolone], the Dissolved amount in series [1] (Prednisolone, water, elution time 10 min) is 336.3 µg/mL; in series [1] (Prednisolone, water, elution time 30 min), 315.8 µg/mL; in series [1] (Prednisolone, water, elution time 120 min), 268.2 µg/mL; in series [1] (Prednisolone, water, elution time 360 min) it was 266.3 µg/mL; in series [2] (Prednisolone, 2nd fluid for disintegration test, elution time 3 min), 369.1 µg/mL; in series [2] (Prednisolone, 2nd fluid for disintegration test, elution time 10 min) it was 382.4 µg/mL. Further, the Dissolved amount was 310.8 µg/mL in series [2] (Prednisolone, 2nd fluid for disintegration test, elution time 30 min); 265.5 µg/mL in series [2] (Prednisolone, 2nd fluid for disintegration test, elution time 120 min); 257.9 µg/mL in series [2] (Prednisolone, 2nd fluid for disintegration test, elution time 360 min).
Turning to `COc1ccc(Cl)cc1C(=O)NCCc1ccc(S(=O)(=O)NC(=O)NC2CCCCC2)cc1` [compound 11, Glibenclamide], the Dissolved amount in series [1] (setting [3]) amounted to 6.4 µg/mL; in series [2] (setting [4]), 8.0 µg/mL.
For the molecule `CN/C(=N/CCSCc1nc[nH]c1C)NC#N` [compound 19, Cimetidine], the Dissolved amount in series [1] (Dissolution test using water, elution time 10 min) was 8160.2 µg/mL; in series [1] (Dissolution test using water, elution time 30 min) it was 7564.5 µg/mL; in series [1] (Dissolution test using water, elution time 120 min), 7898.3 µg/mL; in series [1] (Dissolution test using water, elution time 360 min), 7166.4 µg/mL; in series [2] (setting [5]), 8676.7 µg/mL; in series [2] (setting [6]), 9475.2 µg/mL. Also, the Dissolved amount in series [2] (setting [7]) amounted to 8810.0 µg/mL.
As for `CC(=O)Oc1ccccc1C(=O)O` [Comparative Example 1-3, Aspirin], the Dissolved amount in series [1] (setting [3]) was determined as 3110.4 µg/mL; in series [1] (water, elution time 1 min) it was 1831.9 µg/mL; in series [1] (water, elution time 3 min), 2934.9 µg/mL; in series [1] (water, elution time 10 min), 2985.3 µg/mL; in series [1] (water, elution time 60 min), 3105.7 µg/mL; in series [1] (water, elution time 180 min), 3108.1 µg/mL. For the same molecule, the Dissolved amount worked out at 3110.4 µg/mL in series [1] (water, elution time 360 min); 252.7 µg/mL in series [2] (setting [8]); 1020.4 µg/mL in series [2] (setting [5]); 5352.3 µg/mL in series [2] (setting [9]); 5963.6 µg/mL in series [2] (setting [10]); 6458.1 µg/mL in series [2] (2nd fluid for disintegration test, elution time 180 min). In addition, the results for the Dissolved amount in series [2] (setting [7]) and in series [2] (setting [4]) were 8552.7 µg/mL and 6552.7 µg/mL, respectively.
For `Nc1ncnc2nc[nH]c12` [compound 45, Adenine], the Dissolved amount in series [1] (Adenine, water, elution time 3 min) was found to be 1478.0 µg/mL; in series [1] (Adenine, water, elution time 10 min), 1557.3 µg/mL; in series [1] (Adenine, water, elution time 30 min) it was 1646.6 µg/mL; in series [1] (Adenine, water, elution time 360 min) it was 1696.4 µg/mL; in series [2] (Adenine, 2nd fluid for disintegration test, elution time 3 min), 1752.2 µg/mL; in series [2] (Adenine, 2nd fluid for disintegration test, elution time 10 min), 2028.0 µg/mL. The Dissolved amount in series [2] (Adenine, 2nd fluid for disintegration test, elution time 30 min) was determined as 2001.9 µg/mL; in series [2] (Adenine, 2nd fluid for disintegration test, elution time 120 min) it was 2001.4 µg/mL; in series [2] (Adenine, 2nd fluid for disintegration test, elution time 360 min), 1876.8 µg/mL.
Regarding `CC[C@H]1OC(=O)[C@H](C)[C@@H](O[C@H]2C[C@@](C)(OC)[C@@H](O)[C@H](C)O2)[C@H](C)[C@@H](O[C@@H]2O[C@H](C)C[C@H](N(C)C)[C@H]2O)[C@](C)(O)C[C@@H](C)C(=O)[C@H](C)[C@@H](O)[C@]1(C)O` [compound 28, Erythromycin], the Dissolved amount in series [1] (water, elution time 3 min) was 635.0 µg/mL; in series [1] (water, elution time 10 min), 861.6 µg/mL; in series [1] (water, elution time 30 min), 944.7 µg/mL; in series [1] (water, elution time 120 min), 927.7 µg/mL; in series [1] (water, elution time 360 min), 846.1 µg/mL; in series [2] (setting [9]) it was 4984.2 µg/mL. Further, the Dissolved amount in series [2] (setting [10]) worked out at 5103.6 µg/mL; in series [2] (setting [6]) it was 5904.1 µg/mL; in series [2] (setting [7]) it was 6044.7 µg/mL.
As for `CC(=O)Nc1nnc(S(N)(=O)=O)s1` [compound 23, Acetazolamide], the Dissolved amount was 1040.6 µg/mL in series [1] (water, elution time 3 min); 1238.7 µg/mL in series [1] (water, elution time 10 min); 1244.8 µg/mL in series [1] (water, elution time 30 min); 1251.4 µg/mL in series [1] (water, elution time 120 min); 1212.0 µg/mL in series [1] (water, elution time 360 min); 1331.6 µg/mL in series [2] (setting [5]). In addition, the Dissolved amount was found to be 1721.6 µg/mL in series [2] (setting [6]) and 1654.9 µg/mL in series [2] (setting [7]).
As for `Nc1nc(N)c2nc(-c3ccccc3)c(N)nc2n1` [6-1, Triamterene], the Dissolved amount was found to be 21.3 µg/mL in series [1] (setting [3]) and 18.4 µg/mL in series [2] (setting [4]).
As to `COc1cc(Cc2cnc(N)nc2N)cc(OC)c1OC` [compound 13, Trimethoprim], the Dissolved amount in series [1] (setting [3]) was found to be 656.3 µg/mL; in series [2] (setting [4]) it was 1321.9 µg/mL.
As to `CC1(C)[C@@H](O[C@H]2O[C@H](C(=O)O)[C@@H](O)[C@H](O)[C@H]2O[C@@H]2O[C@H](C(=O)O)[C@@H](O)[C@H](O)[C@H]2O)CC[C@]2(C)[C@H]3C(=O)C=C4[C@@H]5C[C@@](C)(C(=O)O)CC[C@]5(C)CC[C@@]4(C)[C@]3(C)CC[C@@H]12` [Comparative Example 16, Ammonium Glycyrrhizinate], the Dissolved amount is 2668.0 µg/mL in series [1] (water, elution time 1 min); 4621.4 µg/mL in series [1] (water, elution time 3 min); 6792.2 µg/mL in series [1] (water, elution time 30 min); 7374.5 µg/mL in series [1] (water, elution time 60 min); 8826.1 µg/mL in series [1] (water, elution time 180 min); 8948.1 µg/mL in series [1] (water, elution time 360 min). In addition, the Dissolved amount came out at 5113.7 µg/mL in series [2] (setting [8]), 7012.3 µg/mL in series [2] (setting [5]) and 9096.3 µg/mL in series [2] (setting [9]).
For `CNC[C@H](O)c1ccc(O)c(O)c1` [compound 29, Epinephrine], in series [2], the Dissolved amount was 2001.7 µg/mL and 2061.7 µg/mL and 2129.3 µg/mL and 2102.5 µg/mL.
